Test results published in patent US7632811B2, “Analogs of parathyroid hormone” (Societe de Conseils de Recherches et D'Applications …, priority 1995, dated 2009).
Like-named read-outs stand apart in the source and are kept apart here. Non-standard residues stand in square brackets, D forms with d. Residues, ends and D or L forms follow the SMILES beside them. Cha = N[C@@H](CC1CCCCC1)C(=O)O; Ac6c = NC1(C(=O)O)CCCCC1; Nle = CCCC[C@H](N)C(=O)O; Aib = CC(C)(N)C(=O)O

Target: T1, PTH receptor present on SaOS-2 (human osteosarcoma cells) (Homo sapiens, UniProt Q03431)
T1 construct: host or cells: SaOS-2 human osteosarcoma cells (intact, confluent monolayers)
T1 sequence (Q03431 27-593): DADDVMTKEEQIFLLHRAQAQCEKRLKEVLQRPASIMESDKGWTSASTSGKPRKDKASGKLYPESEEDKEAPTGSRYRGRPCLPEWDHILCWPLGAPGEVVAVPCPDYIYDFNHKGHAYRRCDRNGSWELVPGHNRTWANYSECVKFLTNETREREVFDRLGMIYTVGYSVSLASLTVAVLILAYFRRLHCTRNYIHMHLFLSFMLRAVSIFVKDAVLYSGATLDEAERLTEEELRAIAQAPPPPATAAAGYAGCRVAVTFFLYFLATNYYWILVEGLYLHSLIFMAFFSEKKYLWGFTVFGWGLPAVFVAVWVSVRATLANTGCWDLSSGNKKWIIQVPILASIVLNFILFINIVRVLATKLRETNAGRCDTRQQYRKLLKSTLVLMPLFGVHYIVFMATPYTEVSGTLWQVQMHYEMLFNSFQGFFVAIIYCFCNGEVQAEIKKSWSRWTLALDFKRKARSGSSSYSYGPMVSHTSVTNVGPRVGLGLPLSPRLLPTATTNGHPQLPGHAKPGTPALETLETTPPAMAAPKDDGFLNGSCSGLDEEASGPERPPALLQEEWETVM
Assay: Binding to PTH receptor on SaOS-2 cells (competition with mono-125I-[Nle8,18,Tyr34(3-125I)]bPTH(1-34)NH2)
Settings: 2 hrs at room temperature, read-out: Kd (half maximal inhibition of binding of mono-125I-[Nle8,18, Tyr34(3-125I)]bPTH(1-34)NH2)
Description: A. Binding to PTH Receptor
The peptides of the invention were tested for their ability to bind to the PTH receptor present on SaOS-2 (human osteosarcoma cells). SaOS-2 cells (American Type Culture Collection, Rockville, Md.; ATCC #HTB 85) were maintained in RPMI 1640 medium (Sigma, St. Louis, Mo.) supplemented with 10% fetal bovine serum (FBS) and 2 mM glutamine at 37EC in a humidified atmosphere of 5% CO2 in air. The medium was changed every three or four days, and the cells were subcultured every week by trypsinization.
SaOS-2 cells were maintained for four days until they had reached confluence. The medium was replaced with 5% FBS in RPMI 1640 medium and incubated for 2 hrs at room temperature with 10×10^4 cpm mono-^125I-[Nle^8,18, Tyr^34(3-^125I)]bPTH(1-34)NH2 in the presence of a competing peptides of the invention at various concentrations between 10^−11 M to 10^−4 M. The cells were washed four times with ice-cold PBS and lysed with 0.1 M NaOH, and the radioactivity associated with the cells was counted in a scintillation counter. Synthesis of mono-^125I-[Nle^8,18, Tyr^34(3-^125I)]bPTH(1-34)NH2 was carried out as described in Goldman, M. E., et al., Endocrinol., 123:1468 (1988).
The binding assay was conducted with various peptides of the invention, and the Kd value (half maximal inhibition of binding of mono-^125I-[Nle^8,18, Tyr^34(3-^125I)]bPTH(1-34)NH2) for each peptide was calculated.

## CC[C@H](C)[C@H](NC(=O)[C@H](CO)NC(=O)[C@H](CCCCN)NC(=O)CNC(=O)[C@H](CCCCN)NC(=O)[C@H](CC(=O)O)NC(=O)[C@H](Cc1c[nH]cn1)NC(=O)[C@H](CC(C)C)NC(=O)[C@H](CC(C)C)NC(=O)[C@H](CCC(N)=O)NC(=O)[C@H](Cc1c[nH]cn1)NC(=O)[C@H](CCC(=O)O)NC(=O)[C@H](CO)NC(=O)[C@@H](NC(=O)[C@H](C)N)C(C)C)C(=O)N[C@@H](CCC(N)=O)C(=O)N[C@@H](CC(=O)O)C(=O)N[C@@H](CC(C)C)C(=O)N[C@@H](CCCNC(=N)N)C(=O)N[C@@H](CCCNC(=N)N)C(=O)N[C@@H](CCCNC(=N)N)C(=O)N[C@@H](CC1CCCCC1)C(=O)N[C@@H](CC(C)C)C(=O)N[C@@H](CC(C)C)C(=O)N[C@@H](CCC(=O)O)C(=O)N[C@@H](CCCCN)C(=O)NC1(C(=O)N[C@@H](CC(C)C)C(=O)NC(C)(C)C(=O)N[C@@H](CCCCN)C(=O)N[C@@H](CC(C)C)C(=O)N[C@@H](Cc2c[nH]cn2)C(=O)N[C@H](C(=O)N[C@@H](C)C(N)=O)[C@@H](C)O)CCCCC1 [[Cha^22, Leu^23,28,31, Glu^25, Lys^26,30, Ahc^27, Aib^29]hPTHrP(1-34)NH2] (H-AVSEHQLLHDKGKSIQDLRRR[Cha]LLEK[Ac6c]L[Aib]KLHTA-NH2)
Table II
  Kd: 60 nM

## CC[C@H](C)[C@H](NC(=O)[C@H](CCC(=O)O)NC(=O)[C@H](CO)NC(=O)[C@@H](NC(=O)[C@@H](N)CO)C(C)C)C(=O)N[C@@H](CCC(N)=O)C(=O)N[C@@H](CC(C)C)C(=O)N[C@@H](CCSC)C(=O)N[C@@H](Cc1c[nH]cn1)C(=O)N[C@@H](CC(N)=O)C(=O)N[C@@H](CC(C)C)C(=O)NC(C)(C)C(=O)N[C@@H](CCCCN)C(=O)N[C@@H](Cc1c[nH]cn1)C(=O)N[C@@H](CC(C)C)C(=O)N[C@@H](CC(N)=O)C(=O)N[C@@H](CO)C(=O)N[C@@H](CCSC)C(=O)N[C@@H](CCC(=O)O)C(=O)N[C@@H](CCCNC(=N)N)C(=O)N[C@H](C(=O)N[C@@H](CCC(=O)O)C(=O)N[C@@H](Cc1c[nH]c2ccccc12)C(=O)N[C@@H](CC(C)C)C(=O)N[C@@H](CCCNC(=N)N)C(=O)N[C@@H](CCCCN)C(=O)N[C@@H](CCCCN)C(=O)N[C@@H](CC(C)C)C(=O)N[C@@H](CCC(N)=O)C(=O)N[C@@H](CC(=O)O)C(=O)N[C@H](C(=O)N[C@@H](Cc1c[nH]cn1)C(=O)N[C@@H](CC(N)=O)C(=O)N[C@@H](Cc1ccccc1)C(N)=O)C(C)C)C(C)C [[Aib^12]hPTH(1-34)NH2] (H-SVSEIQLMHNL[Aib]KHLNSMERVEWLRKKLQDVHNF-NH2)
Table I
  Kd: 5 nM

## CC[C@H](C)[C@H](NC(=O)[C@H](CO)NC(=O)[C@H](CCCCN)NC(=O)CNC(=O)[C@H](CCCCN)NC(=O)[C@H](CC(=O)O)NC(=O)[C@H](Cc1c[nH]cn1)NC(=O)[C@H](CC(C)C)NC(=O)[C@H](CC(C)C)NC(=O)[C@H](CCC(N)=O)NC(=O)[C@H](Cc1c[nH]cn1)NC(=O)[C@H](CCC(=O)O)NC(=O)[C@H](CO)NC(=O)[C@@H](NC(=O)[C@H](C)N)C(C)C)C(=O)N[C@@H](CCC(N)=O)C(=O)N[C@@H](CC(=O)O)C(=O)N[C@@H](CC(C)C)C(=O)N[C@@H](CCCNC(=N)N)C(=O)N[C@@H](CCCNC(=N)N)C(=O)N[C@@H](CCCNC(=N)N)C(=O)N[C@@H](CCC(=O)O)C(=O)N[C@@H](CC(C)C)C(=O)NC1(C(=O)N[C@@H](CCC(=O)O)C(=O)N[C@@H](CCCCN)C(=O)N[C@@H](CC(C)C)C(=O)N[C@@H](CC(C)C)C(=O)NC(C)(C)C(=O)N[C@@H](CCCCN)C(=O)N[C@@H](CC(C)C)C(=O)N[C@@H](Cc2c[nH]cn2)C(=O)N[C@H](C(=O)N[C@@H](C)C(N)=O)[C@@H](C)O)CCCCC1 [[Glu^22,25, Leu^23,28,31, Ahc^24, Lys^26,30, Aib^29]hPTHrP(1-34)NH2] (H-AVSEHQLLHDKGKSIQDLRRREL[Ac6c]EKLL[Aib]KLHTA-NH2; N-terminus assumed)
Table II
  Kd: 6 nM

## CCCC[C@H](NC(=O)[C@H](CC(=O)O)NC(=O)[C@H](CCC(N)=O)NC(=O)[C@H](CC(C)C)NC(=O)[C@H](CCCCN)NC(=O)[C@H](CCCCN)NC(=O)[C@H](CCCNC(=N)N)NC(=O)[C@H](CC(C)C)NC(=O)[C@H](Cc1c[nH]c2ccccc12)NC(=O)[C@H](CCC(=O)O)NC(=O)[C@@H](NC(=O)[C@H](CCCNC(=N)N)NC(=O)C(C)(C)NC(=O)[C@H](CCCC)NC(=O)[C@H](CO)NC(=O)C(C)(C)NC(=O)[C@H](CC(C)C)NC(=O)[C@H](Cc1c[nH]cn1)NC(=O)[C@H](CCCCN)NC(=O)CNC(=O)[C@H](CC1CCCCC1)NC(=O)[C@H](CC(N)=O)NC(=O)[C@H](Cc1c[nH]cn1)NC(=O)[C@H](CCCC)NC(=O)[C@H](CC1CCCCC1)NC(=O)[C@H](CCC(N)=O)NC(=O)[C@@H](NC(=O)[C@H](CCC(=O)O)NC(=O)[C@H](CO)NC(=O)[C@@H](NC(=O)[C@@H](N)CO)C(C)C)[C@@H](C)CC)C(C)C)C(=O)N[C@@H](Cc1c[nH]cn1)C(=O)N[C@@H](CC(N)=O)C(=O)N[C@@H](Cc1ccc(O)cc1)C(N)=O [[Cha^7,11, Nle^8,18,31, Aib^16,19, Tyr^34]hPTH(1-34)NH2] (H-SVSEIQ[Cha][Nle]HN[Cha]GKHL[Aib]S[Nle][Aib]RVEWLRKKLQD[Nle]HNY-NH2)
Table I
  Kd: 40 nM

## CC[C@H](C)[C@H](NC(=O)[C@H](CCC(=O)O)NC(=O)[C@H](CO)NC(=O)[C@@H](NC(=O)[C@@H](N)CO)C(C)C)C(=O)N[C@@H](CCC(N)=O)C(=O)N[C@@H](CC1CCCCC1)C(=O)N[C@@H](CCSC)C(=O)N[C@@H](Cc1c[nH]cn1)C(=O)N[C@@H](CC(N)=O)C(=O)N[C@@H](CC1CCCCC1)C(=O)NCC(=O)N[C@@H](CCCCN)C(=O)N[C@@H](Cc1c[nH]cn1)C(=O)N[C@@H](CC(C)C)C(=O)N[C@@H](CC(N)=O)C(=O)N[C@@H](CO)C(=O)N[C@@H](CCSC)C(=O)N[C@@H](CCC(=O)O)C(=O)N[C@@H](CCCNC(=N)N)C(=O)N[C@H](C(=O)N[C@@H](CCC(=O)O)C(=O)N[C@@H](Cc1c[nH]c2ccccc12)C(=O)N[C@@H](CC(C)C)C(=O)N[C@@H](CCCNC(=N)N)C(=O)N[C@@H](CCCCN)C(=O)N[C@@H](CCCCN)C(=O)N[C@@H](CC(C)C)C(=O)N[C@@H](CCC(N)=O)C(=O)N[C@@H](CC(=O)O)C(=O)N[C@H](C(=O)N[C@@H](Cc1c[nH]cn1)C(=O)N[C@@H](CC(N)=O)C(=O)N[C@@H](Cc1ccccc1)C(N)=O)C(C)C)C(C)C [[Cha^7,11]hPTH(1-34)NH2] (H-SVSEIQ[Cha]MHN[Cha]GKHLNSMERVEWLRKKLQDVHNF-NH2)
Table I
  Kd: 10 nM

## CC[C@H](C)[C@H](NC(=O)[C@H](CCC(=O)O)NC(=O)[C@H](CO)NC(=O)[C@@H](NC(=O)[C@@H](N)CO)C(C)C)C(=O)N[C@@H](CCC(N)=O)C(=O)N[C@@H](CC(C)C)C(=O)N[C@@H](CCSC)C(=O)N[C@@H](Cc1c[nH]cn1)C(=O)N[C@@H](CC(N)=O)C(=O)N[C@@H](CC(C)C)C(=O)NCC(=O)N[C@@H](CCCCN)C(=O)N[C@@H](Cc1c[nH]cn1)C(=O)N[C@@H](CC(C)C)C(=O)N[C@@H](CC(N)=O)C(=O)N[C@@H](CO)C(=O)N[C@@H](CCSC)C(=O)N[C@@H](CCC(=O)O)C(=O)N[C@@H](CCCNC(=N)N)C(=O)N[C@H](C(=O)N[C@@H](CCC(=O)O)C(=O)N[C@@H](Cc1c[nH]c2ccccc12)C(=O)N[C@@H](CC(C)C)C(=O)N[C@@H](CCCNC(=N)N)C(=O)N[C@@H](CCCCN)C(=O)N[C@@H](CCCCN)C(=O)N[C@@H](CC1CCCCC1)C(=O)N[C@@H](CCC(N)=O)C(=O)N[C@@H](CC(=O)O)C(=O)N[C@@H](CC1CCCCC1)C(=O)N[C@@H](Cc1c[nH]cn1)C(=O)N[C@@H](CC(N)=O)C(=O)N[C@@H](Cc1ccccc1)C(N)=O)C(C)C [[Cha^28,31]hPTH(1-34)NH2] (H-SVSEIQLMHNLGKHLNSMERVEWLRKK[Cha]QD[Cha]HNF-NH2)
Table I
  Kd: 60 nM
